Data on 23 compounds can be found in patent US11702404B2, “GLP-1R modulating compounds” (priority 2019, dated 2023).

Where two headings read alike, the source gives them in different places.

The nature of data set [1]: Microsomal stability, human liver microsomes (predicted hepatic clearance). The settings on record: predicted from in vitro microsomal stability data.
Data set [2] deals with GLP-1R (Homo sapiens, UniProt P43220). Description: GLP-1R activation: cAMP increase in CHO cells stably expressing GLP-1R. Type of data set: cell-based. The note with it: read-out: EC50.
Where [3] appears, read: cAMP increase, CHO cells stably expressing GLP-1R, 10 point dose response, 30 minutes incubation.

Sequence of GLP-1R (P43220 24-463): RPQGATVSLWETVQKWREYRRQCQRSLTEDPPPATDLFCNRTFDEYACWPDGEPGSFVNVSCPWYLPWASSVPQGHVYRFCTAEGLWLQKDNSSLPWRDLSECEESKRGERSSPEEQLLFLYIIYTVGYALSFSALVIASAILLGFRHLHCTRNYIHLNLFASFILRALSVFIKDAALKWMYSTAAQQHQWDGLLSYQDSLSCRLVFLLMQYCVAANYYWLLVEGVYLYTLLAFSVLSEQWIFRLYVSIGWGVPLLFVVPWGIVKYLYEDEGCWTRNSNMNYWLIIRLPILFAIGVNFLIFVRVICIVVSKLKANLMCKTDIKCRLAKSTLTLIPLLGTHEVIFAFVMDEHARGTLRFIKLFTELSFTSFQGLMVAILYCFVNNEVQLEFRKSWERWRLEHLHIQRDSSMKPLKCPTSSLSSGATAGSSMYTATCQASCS

The term EC50 denotes the midpoint of the concentration-response curve. For the compound `COCCn1c(Cc2ccc(-c3ccnc(OCc4ccc(C#N)cc4F)n3)cc2F)nc2ccc(C(=O)O)cc21` [Example 83, 2-(4-(2-((4-cyano-2-fluorobenzyl)oxy)pyrimidin-4-yl)-2-fluorobenzyl)-1-(2-methoxyethyl)-1H-benzo[d]imidazole-6-carboxylic acid], the “Predicted Hepatic Clearance (Pred. Cl.)” value in data set [1] was less than 1.83 mL/min/kg. In data set [2] (setting [3]), the EC50 worked out at 29.3 nM.
For `COCCn1c(Cc2ccc(-c3nc(OCc4ccc(C#N)cc4F)cs3)cc2F)nc2ccc(C(=O)O)cc21` [Example 84, 2-(4-(4-((4-cyano-2-fluorobenzyl)oxy)thiazol-2-yl)-2-fluorobenzyl)-1-(2-methoxyethyl)-1H-benzo[d]imidazole-6-carboxylic acid] the same measures were 6.33 mL/min/kg and 54.3 nM.
For `COCCn1c(Cc2ccc(-c3cc(C#N)cc(OCc4ccc(C#N)cc4F)n3)cc2F)nc2ccc(C(=O)O)cc21` [Example 85, 2-(4-(4-cyano-6-((4-cyano-2-fluorobenzyl)oxy)pyridin-2-yl)-2-fluorobenzyl)-1-(2-methoxyethyl)-1H-benzo[d]imidazole-6-carboxylic acid] the same measures were 3.67 mL/min/kg and 4.9 nM.
On the same counts, the results for `COCCn1c(Cc2ccc(-c3ccc(C#N)c(OCc4ccc(C#N)cc4F)n3)cc2F)nc2ccc(C(=O)O)cc21` [Example 86, 2-(4-(5-cyano-6-((4-cyano-2-fluorobenzyl)oxy)pyridin-2-yl)-2-fluorobenzyl)-1-(2-methoxyethyl)-1H-benzo[d]imidazole-6-carboxylic acid] are less than 1.83 mL/min/kg and 274 nM.
Turning to `COCCn1c(Cc2ccc(-c3ccc(F)c(OCc4ccc(C#N)cc4F)n3)cc2F)nc2ccc(C(=O)O)cc21` [Example 87, 2-(4-(6-((4-cyano-2-fluorobenzyl)oxy)-5-fluoropyridin-2-yl)-2-fluorobenzyl)-1-(2-methoxyethyl)-1H-benzo[d]imidazole-6-carboxylic acid], in data set [1], the “Predicted Hepatic Clearance (Pred. Cl.)” value was less than 1.83 mL/min/kg. Besides, the EC50 in data set [2] (setting [3]) came to 5.66 nM.
As for `COCCn1c(Cc2ccc(-c3csnc3OCc3ccc(C#N)cc3F)cc2F)nc2ccc(C(=O)O)cc21` [Example 88, 2-(4-(3-((4-cyano-2-fluorobenzyl)oxy)isothiazol-4-yl)-2-fluorobenzyl)-1-(2-methoxyethyl)-1H-benzo[d]imidazole-6-carboxylic acid], the “Predicted Hepatic Clearance (Pred. Cl.)” value in data set [1] is 8.5 mL/min/kg. The EC50 in data set [2] (setting [3]) is 296 nM.
On the same counts, the results for `COCCn1c(Cc2ccc(-n3ccc(OCc4ccccc4)n3)cc2F)nc2ccc(C(=O)O)cc21` [Example 89, 2-(4-(3-(benzyloxy)-1H-pyrazol-1-yl)-2-fluorobenzyl)-1-(2-methoxyethyl)-1H-benzo[d]imidazole-6-carboxylic acid] are 8.83 mL/min/kg and 1650 nM.
For the compound `COCCn1c(Cc2ccc(-c3cc(C(F)(F)F)cc(OCc4ccc(C#N)cc4F)n3)cc2F)nc2ccc(C(=O)O)cc21` [Example 90, 2-(4-(6-((4-cyano-2-fluorobenzyl)oxy)-4-(trifluoromethyl)pyridin-2-yl)-2-fluorobenzyl)-1-(2-methoxyethyl)-1H-benzo[d]imidazole-6-carboxylic acid], the “Predicted Hepatic Clearance (Pred. Cl.)” value in data set [1] was 10 mL/min/kg. Moreover, the EC50 in data set [2] (setting [3]) turned out to be 72.4 nM.
Consider `COCCn1c(Cc2ccc(-c3nc(OCc4ccc(C#N)cc4F)ccc3F)cc2F)nc2ccc(C(=O)O)cc21` [Example 91, 2-(4-(6-((4-cyano-2-fluorobenzyl)oxy)-3-fluoropyridin-2-yl)-2-fluorobenzyl)-1-(2-methoxyethyl)-1H-benzo[d]imidazole-6-carboxylic acid], for which the “Predicted Hepatic Clearance (Pred. Cl.)” value in data set [1] is 5 mL/min/kg. The EC50 in data set [2] (setting [3]) turned out to be 2630 nM.
`N#Cc1ccc(COc2cccc(-c3ccc(Cc4nc5ncc(C(=O)O)cc5n4CC4(CF)CC4)c(F)c3)n2)c(F)c1` [Example 92, 2-(4-(6-((4-cyano-2-fluorobenzyl)oxy)pyridin-2-yl)-2-fluorobenzyl)-1-((1-(fluoromethyl)cyclopropyl)methyl)-1H-imidazo[4,5-b]pyridine-6-carboxylic acid]: in data set [1], the “Predicted Hepatic Clearance (Pred. Cl.)” value was 3.17 mL/min/kg. The EC50 in data set [2] worked out at 2.64 nM.
On to `COc1cc(Cl)ccc1COc1nccc(-c2ccc(Cc3nc4ccc(C(=O)O)cc4n3CC3(CC#N)CC3)cc2F)n1` [Example 93, 2-(4-(2-((4-chloro-2-methoxybenzyl)oxy)pyrimidin-4-yl)-3-fluorobenzyl)-1-((1-(cyanomethyl)cyclopropyl)methyl)-1H-benzo[d]imidazole-6-carboxylic acid], for which the “Predicted Hepatic Clearance (Pred. Cl.)” value in data set [1] was 14.5 mL/min/kg. In addition, the EC50 in data set [2] (setting [3]) worked out at 0.28 nM.
On the same counts, the results for `N#Cc1ccc(COc2cccc(-c3ccc(Cc4nc5ncc(C(=O)O)cc5n4CC4(CF)CC4)c(F)c3)n2)c(F)c1` [Example 94, 2-(4-(6-((4-cyano-2-fluorobenzyl)oxy)pyridin-2-yl)-2-fluorobenzyl)-1-((1-(fluoromethyl)cyclopropyl)methyl)-1H-imidazo[4,5-b]pyridine-6-carboxylic acid] are less than 1.83 mL/min/kg and 0.66 nM.
Consider `N#CCC1(Cn2c(Cc3ccc(-c4ccc(F)c(OCc5ccc(C#N)cc5F)n4)c(F)c3)nc3ccc(C(=O)O)cc32)CC1` [Example 95, 2-(4-(6-((4-cyano-2-fluorobenzyl)oxy)-5-fluoropyridin-2-yl)-3-fluorobenzyl)-1-((1-(cyanomethyl)cyclopropyl)methyl)-1H-benzo[d]imidazole-6-carboxylic], for which, in data set [1], the “Predicted Hepatic Clearance (Pred. Cl.)” value is 6.7 mL/min/kg. Further, the EC50 in data set [2] (setting [3]) was found to be 0.26 nM.
Take `COCCn1c(Cc2ccc(-c3cccc(OCc4ccncc4OC)n3)c(F)c2)nc2ccc(C(=O)O)cc21` [Example 96, 2-(3-fluoro-4-(6-((3-methoxypyridin-4-yl)methoxy)pyridin-2-yl)benzyl)-1-(2-methoxyethyl)-1H-benzo[d]imidazole-6-carboxylic acid]: the “Predicted Hepatic Clearance (Pred. Cl.)” value in data set [1] is 17.8 mL/min/kg. For the same compound, the EC50 in data set [2] (setting [3]) came to 30.9 nM.
As to `COCCn1c(Cc2ccc(-c3cc(C(=O)O)cc(OCc4ccc(C#N)cc4F)n3)cc2F)nc2ccc(C(=O)O)cc21` [Example 97, 2-(4-(4-carboxy-6-((4-cyano-2-fluorobenzyl)oxy)pyridin-2-yl)-2-fluorobenzyl)-1-(2-methoxyethyl)-1H-benzo[d]imidazole-6-carboxylic acid], the “Predicted Hepatic Clearance (Pred. Cl.)” value in data set [1] is 3.5 mL/min/kg. Moreover, in data set [2] (setting [3]), the EC50 came out at 2780 nM.
`COCCn1c(Cc2ccc(-c3cccc(Oc4cccc5ccccc45)n3)cc2F)nc2ccc(C(=O)O)cc21` [Example 98, 2-(2-fluoro-4-(6-(naphthalen-1-yloxy)pyridin-2-yl)benzyl)-1-(2-methoxyethyl)-1H-benzo[d]imidazole-6-carboxylic acid]: in data set [1], the “Predicted Hepatic Clearance (Pred. Cl.)” value is 7.33 mL/min/kg. Further, the EC50 in data set [2] (setting [3]) stood at 913 nM.
Turning to `COCCn1c(Cc2ccc(-c3cccc(OCc4ccc(C#N)cc4F)n3)c(Cl)c2)nc2ccc(C(=O)O)cc21` [Example 101, 2-(3-chloro-4-(6-((4-cyano-2-fluorobenzyl)oxy)pyridin-2-yl)benzyl)-1-(2-methoxyethyl)-1H-benzo[d]imidazole-6-carboxylic acid], the “Predicted Hepatic Clearance (Pred. Cl.)” value in data set [1] is 6.7 mL/min/kg. Besides, the EC50 in data set [2] (setting [3]) came to 25.9 nM.
With `COCCn1c(Cc2cnc(-c3cccc(OCc4ccc(C#N)cc4F)n3)cn2)nc2ccc(C(=O)O)cc21` [Example 102, 2-((5-(6-((4-cyano-2-fluorobenzyl)oxy)pyridin-2-yl)pyrazin-2-yl)methyl)-1-(2-methoxyethyl)-1H-benzo[d]imidazole-6-carboxylic acid], the “Predicted Hepatic Clearance (Pred. Cl.)” value in data set [1] is 5.17 mL/min/kg. Further, the EC50 in data set [2] (setting [3]) was found to be 56.5 nM.
`COCCn1c(Cc2c(F)cc(-c3ccnnc3OCc3ccc(C#N)cc3F)cc2F)nc2ccc(C(=O)O)cc21` [Example 103, 2-[[4-[3-[(4-cyano-2-fluoro-phenyl)methoxy]pyridazin-4-yl]-2,6-difluoro-phenyl]methyl]-3-(2-methoxyethyl)benzimidazole-5-carboxylic acid]: in data set [1], the “Predicted Hepatic Clearance (Pred. Cl.)” value was 5.17 mL/min/kg. The EC50 in data set [2] (setting [3]) was determined as 4980 nM.
For `COCCn1c(Cc2cc(F)c(-c3cccc(OCc4ccc(C#N)cc4F)n3)cc2F)nc2ccc(-c3nn[nH]n3)cc21` [Example 104, 4-[[6-[2,5-difluoro-4-[[1-(2-methoxyethyl)-6-(2H-tetrazol-5-yl)benzimidazol-2-yl]methyl]phenyl]-2-pyridyl]oxymethyl]-3-fluoro-benzonitrile] the same measures were 12.7 mL/min/kg and 21.4 nM.
`C[C@@]1(Cn2c(Cc3ccc(-c4cccc(OCc5ccc(C#N)cc5F)n4)cc3F)nc3ccc(C(=O)O)cc32)CCO1` [Example 105, (S)-2-(4-(6-((4-cyano-2-fluorobenzyl)oxy)pyridin-2-yl)-2-fluorobenzyl)-1-((2-methyloxetan-2-yl)methyl)-1H-benzo[d]imidazole-6-carboxylic acid]: the “Predicted Hepatic Clearance (Pred. Cl.)” value in data set [1] was 6.33 mL/min/kg. The EC50 in data set [2] (setting [3]) worked out at 0.45 nM.
In the case of `N#Cc1ccc(COc2nccc(-c3cc(F)c(Cc4nc5ccc(C(=O)O)nc5n4CC4(CF)CC4)cc3F)n2)c(F)c1` [Example 106, 2-(4-(2-((4-cyano-2-fluorobenzyl)oxy)pyrimidin-4-yl)-2,5-difluorobenzyl)-3-((1-(fluoromethyl)cyclopropyl)methyl)-3H-imidazo[4,5-b]pyridine-5-carboxylic acid], the “Predicted Hepatic Clearance (Pred. Cl.)” value in data set [1] is less than 1.83 mL/min/kg. Further, the EC50 in data set [2] (setting [3]) turned out to be 1.5 nM.
For `COCCn1c(Cc2cnn(-c3cccc(OCc4ccc(C#N)cc4F)n3)c2)nc2ccc(C(=O)O)cc21` [Example 107, 2-[[1-[6-[(4-cyano-2-fluoro-phenyl)methoxy]-2-pyridyl]pyrazol-4-yl]methyl]-3-(2-methoxyethyl)benzimidazole-5-carboxylic acid] the same measures were 13.8 mL/min/kg and 3640 nM.
